Experimental data as given in patent US8697739B2, “Bicyclic acetyl-CoA carboxylase inhibitors and uses thereof” (Novartis AG, priority 2010, dated 2014).
pIC50: −log10 of the molar value.

Biological target: T1, human acetyl-CoA carboxylase 2 (ACC2) (Homo sapiens, UniProt O00763)
T1 construct: The cDNA encoding amino acids 144 to 2458 of human acetyl-CoA carboxylase 2; made in house; host or cells: Sf9 insect cells (baculovirus, pFastBac1)
Assay: Acetyl-CoA carboxylase enzyme assay (malonyl-CoA formation by LC/MS/MS)
Type: biochemical
Conditions: recombinant human ACC2 (aa 144-2458); read-out: IC50 ACC2
Outline: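 Malonyl-CoA formation was read by LC/MS/MS MRM against a [13C3]-malonyl-CoA internal standard, after acetic acid quench. The enzyme was baculovirus/Sf9-expressed human ACC2 residues 144–2458, given 15 minutes room-temperature compound preincubation in HEPES pH 7.5 buffer with MgCl2, citrate and DTT. Substrate solution held 50 μM acetyl-CoA, 120 μM ATP and 2 mM KHCO3.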

T1 sequence (O00763 144-2458): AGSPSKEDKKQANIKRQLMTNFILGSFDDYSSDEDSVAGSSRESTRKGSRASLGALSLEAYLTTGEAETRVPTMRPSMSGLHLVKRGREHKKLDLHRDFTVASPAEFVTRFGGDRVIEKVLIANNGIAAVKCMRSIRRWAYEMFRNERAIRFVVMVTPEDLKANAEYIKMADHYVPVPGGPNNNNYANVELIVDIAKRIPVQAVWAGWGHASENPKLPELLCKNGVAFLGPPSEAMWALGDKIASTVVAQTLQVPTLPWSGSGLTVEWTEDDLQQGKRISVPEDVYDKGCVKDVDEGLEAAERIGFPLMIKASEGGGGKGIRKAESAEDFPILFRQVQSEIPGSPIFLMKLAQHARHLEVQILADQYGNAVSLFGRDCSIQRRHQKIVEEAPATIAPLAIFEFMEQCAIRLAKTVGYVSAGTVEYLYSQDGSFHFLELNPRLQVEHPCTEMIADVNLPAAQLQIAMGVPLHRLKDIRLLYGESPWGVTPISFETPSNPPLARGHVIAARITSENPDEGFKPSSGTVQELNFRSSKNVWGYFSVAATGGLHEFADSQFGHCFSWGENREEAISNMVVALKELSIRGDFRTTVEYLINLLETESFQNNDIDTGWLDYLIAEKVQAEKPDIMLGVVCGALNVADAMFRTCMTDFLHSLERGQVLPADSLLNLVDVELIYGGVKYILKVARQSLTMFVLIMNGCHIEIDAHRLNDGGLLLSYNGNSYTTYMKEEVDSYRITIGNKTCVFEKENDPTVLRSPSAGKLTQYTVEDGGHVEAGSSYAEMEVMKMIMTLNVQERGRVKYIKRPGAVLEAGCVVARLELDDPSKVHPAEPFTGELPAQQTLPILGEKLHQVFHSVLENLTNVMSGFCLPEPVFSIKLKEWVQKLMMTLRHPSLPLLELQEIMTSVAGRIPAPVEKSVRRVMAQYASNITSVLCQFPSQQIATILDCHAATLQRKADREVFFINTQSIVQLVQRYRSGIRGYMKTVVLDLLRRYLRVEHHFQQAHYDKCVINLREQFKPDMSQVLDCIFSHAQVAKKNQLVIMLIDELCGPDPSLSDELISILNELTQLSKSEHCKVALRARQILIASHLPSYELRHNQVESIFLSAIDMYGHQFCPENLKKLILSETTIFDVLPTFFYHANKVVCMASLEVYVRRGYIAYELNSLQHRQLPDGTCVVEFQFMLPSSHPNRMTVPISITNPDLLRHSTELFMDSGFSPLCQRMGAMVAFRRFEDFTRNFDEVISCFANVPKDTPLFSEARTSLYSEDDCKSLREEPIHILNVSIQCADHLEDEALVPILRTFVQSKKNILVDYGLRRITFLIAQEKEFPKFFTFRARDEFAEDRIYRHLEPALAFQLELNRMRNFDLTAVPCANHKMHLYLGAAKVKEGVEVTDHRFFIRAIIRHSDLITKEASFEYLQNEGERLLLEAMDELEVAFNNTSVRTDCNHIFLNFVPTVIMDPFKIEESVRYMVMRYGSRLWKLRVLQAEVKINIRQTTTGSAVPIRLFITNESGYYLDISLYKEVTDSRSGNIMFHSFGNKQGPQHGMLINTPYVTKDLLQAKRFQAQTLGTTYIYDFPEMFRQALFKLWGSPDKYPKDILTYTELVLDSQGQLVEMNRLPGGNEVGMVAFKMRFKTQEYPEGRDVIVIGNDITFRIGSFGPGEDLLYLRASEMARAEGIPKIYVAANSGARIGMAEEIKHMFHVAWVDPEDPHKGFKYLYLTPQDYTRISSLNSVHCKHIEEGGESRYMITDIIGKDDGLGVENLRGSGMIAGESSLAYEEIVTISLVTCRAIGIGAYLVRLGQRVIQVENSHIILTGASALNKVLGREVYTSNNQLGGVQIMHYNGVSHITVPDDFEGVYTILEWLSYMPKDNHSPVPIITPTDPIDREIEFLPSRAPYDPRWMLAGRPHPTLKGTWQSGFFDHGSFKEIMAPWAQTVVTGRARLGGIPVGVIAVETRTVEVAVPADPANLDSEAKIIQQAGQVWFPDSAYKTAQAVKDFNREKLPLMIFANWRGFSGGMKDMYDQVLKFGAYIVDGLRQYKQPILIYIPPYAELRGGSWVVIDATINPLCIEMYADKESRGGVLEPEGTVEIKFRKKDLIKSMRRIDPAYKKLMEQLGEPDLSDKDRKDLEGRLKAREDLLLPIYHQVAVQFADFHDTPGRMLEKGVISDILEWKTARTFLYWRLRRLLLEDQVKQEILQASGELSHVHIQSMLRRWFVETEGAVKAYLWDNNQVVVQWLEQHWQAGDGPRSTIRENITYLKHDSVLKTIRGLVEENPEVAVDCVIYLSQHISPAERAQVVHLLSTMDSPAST

| SMILES | pIC50 |
| --- | --- |
| CC(C)OC(=O)[C@H]1CC[C@H](NS(=O)(=O)c2ccc3[nH]c(-c4ccc(N5CCN(C)CC5)cc4)nc3c2)CC1 [Example 557, (1r,4r)-isopropyl 4-(2-(4-(4-methylpiperazin-1-yl)phenyl)-1H-benzo[d]imidazole-5-sulfonamido)cyclohexanecarboxylate] | 7.89 |
| CC(C)OC(=O)c1ccc(NS(=O)(=O)c2ccc3[nH]c(-c4ccc(CN(C)C)cc4)nc3c2)cc1 [Example 558, isopropyl 4-(2-(4-((dimethylamino)methyl)phenyl)-1H-benzo[d]imidazole-5-sulfonamido)benzoate] | 6.47 |
| CNCc1ccc(-c2nc3cc(S(=O)(=O)Nc4ccc(C(=O)OC(C)C)cc4)ccc3[nH]2)cc1 [Example 559, isopropyl 4-(2-(4-((methylamino)methyl)phenyl)-1H-benzo[d]imidazole-5-sulfonamido)benzoate] | 6.79 |
| CC(C)OC(=O)c1ccc(NS(=O)(=O)c2ccc3[nH]c(-c4ccc(CNCc5ccccc5)cc4)nc3c2)cc1 [Example 560, isopropyl 4-(2-(4-((benzylamino)methyl)phenyl)-1H-benzo[d]imidazole-5-sulfonamdo)benzoate] | 6.40 |
| CC(C)OC(=O)c1ccc(NS(=O)(=O)c2ccc3[nH]c(-c4ccc(CN5CCN(C)CC5)cc4)nc3c2)cc1 [Example 561, isopropyl 4-(2-(4-((4-methylpiperazin-1-yl)methyl)phenyl)-1H-benzo[d]imidazole-5-sulfonamido)benzoate] | 6.50 |
| CC(C)OC(=O)c1ccc(NS(=O)(=O)c2ccc3[nH]c(-c4ccc(CN5CCOCC5)cc4)nc3c2)cc1 [Example 562, isopropyl 4-(2-(4-(morpholinomethyl)phenyl)-1H-benzo[d]imidazole-5-sulfonamido)benzoate] | 6.17 |
| COc1ccc(CNCc2ccc(-c3nc4cc(S(=O)(=O)Nc5ccc(C(=O)OC(C)C)cc5)ccc4[nH]3)cc2)cc1OC [Example 563, isopropyl 4-(2-(4-((3,4-dimethoxybenzylamino)methyl)phenyl)-1H-benzo[d]imidazole-5-sulfonamido)benzoate] | 6.45 |
| CC(C)N(C)C(=O)[C@H]1CC[C@H](NS(=O)(=O)c2ccc3[nH]c(-c4ccc(N5CCN(C)CC5)cc4)nc3c2)CC1 [Example 564, (1r,4r)-N-isopropyl-N-methyl-4-(2-(4-(4-methylpiperazin-1-yl)phenyl)-1H-benzo[d]imidazole-5-sulfonamido)cyclohexanecarboxamide] | 7.57 |
| CCCN(C)C(=O)[C@H]1CC[C@H](NS(=O)(=O)c2ccc3[nH]c(-c4ccc(N5CCN(C)CC5)cc4)nc3c2)CC1 [Example 565, (1r,4r)-N-methyl-4-(2-(4-(4-methylpiperazin-1-yl)phenyl)-1H-benzo[d]imidazole-5-sulfonamido)-N-propylcyclohexanecarboxamide] | 7.32 |
| CCCN(C)C(=O)[C@H]1CC[C@H](NS(=O)(=O)c2ccc3[nH]c(Nc4ccccc4)nc3c2)CC1 [Example 566, (1r,4r)-N-methyl-4-(2-(phenylamino)-1H-benzo[d]imidazole-5-sulfonamido)-N-propylcyclohexanecarboxamide] | 6.93 |
| CCN(C)C(=O)[C@H]1CC[C@H](NS(=O)(=O)c2ccc3[nH]c(-c4ccc(N5CCN(C)CC5)cc4)nc3c2)CC1 [Example 567, (1r,4r)-N-ethyl-N-methyl-4-(2-(4-(4-methylpiperazin-1-yl)phenyl)-1H-benzo[d]imidazole-5-sulfonamido)cyclohexanecarboxamide] | 7.19 |
| CCN(C)C(=O)[C@H]1CC[C@H](NS(=O)(=O)c2ccc3[nH]c(Nc4ccccc4)nc3c2)CC1 [Example 568, (1r,4r)-N-ethyl-N-methyl-4-(2-(phenylamino)-1H-benzo[d]imidazole-5-sulfonamido)cyclohexanecarboxamide] | 6.90 |
| C[C@@H](NC(=O)[C@H]1CC[C@H](NS(=O)(=O)c2ccc3[nH]c(Nc4ccccc4)nc3c2)CC1)c1ccccc1 [Example 569, (1r,4R)-4-(2-(phenylamino)-1H-benzo[d]imidazole-5-sulfonamido)-N-((R)-1-phenylethyl)cyclohexanecarboxamide] | > 8.00 |
| C[C@@H](NC(=O)[C@H]1CC[C@H](NS(=O)(=O)c2ccc3[nH]c(Nc4cccc(C#N)c4)nc3c2)CC1)c1ccccc1 [Example 570, (1r,4R)-4-(2-(3-cyanophenylamino)-1H-benzo[d]imidazole-5-sulfonamido)-N-((R)-1-phenylethyl)cyclohexanecarboxamide] | > 8.00 |
| C[C@@H](NC(=O)[C@H]1CC[C@H](NS(=O)(=O)c2ccc3[nH]c(Nc4ccc(N5CCOCC5)nc4)nc3c2)CC1)c1ccccc1 [Example 571, (1r,4R)-4-(2-(6-morpholinopyridin-3-ylamino)-1H-benzo[d]imidazole-5-sulfonamido)-N-((R)-1-phenylethyl)cyclohexanecarboxamide] | > 8.00 |
| CC(=O)c1ccc(Nc2nc3cc(S(=O)(=O)N[C@H]4CC[C@H](C(=O)N[C@H](C)c5ccccc5)CC4)ccc3[nH]2)cc1 [Example 572, (1r,4R)-4-(2-(4-acetylphenylamino)-1H-benzo[d]imidazole-5-sulfonamido)-N-((R)-1-phenylethyl)cyclohexanecarboxamide] | > 8.00 |
| CC(O)c1ccc(-c2nc3cc(S(=O)(=O)N[C@H]4CC[C@H](C(=O)N[C@H](C)c5ccccc5)CC4)ccc3[nH]2)cc1 (stereo partly drawn) [Example 573, (1r,4R)-4-(2-(4-(1-hydroxyethyl)phenyl)-1H-benzo[d]imidazole-5-sulfonamido)-N-((R)-1-phenylethyl)cyclohexanecarboxamide] | > 8.00 |
| C[C@@H](NC(=O)[C@H]1CC[C@H](NS(=O)(=O)c2ccc3[nH]c(Nc4ccc(N5CCOCC5)cc4)nc3c2)CC1)c1ccccc1 [Example 574, (1r,4R)-4-(2-(4-morpholinophenylamino)-1H-benzo[d]imidazole-5-sulfonamido)-N-((R)-1-phenylethyl)cyclohexanecarboxamide] | > 8.00 |
| C[C@@H](NC(=O)[C@H]1CC[C@H](NS(=O)(=O)c2ccc3[nH]c(-c4ccc(N5CCN(C)CC5)cc4)nc3c2)CC1)c1ccccc1 [Example 575, (1r,4R)-4-(2-(4-(4-methylpiperazin-1-yl)phenyl)-1H-benzo[d]imidazole-5-sulfonamido)-N-((R)-1-phenylethyl)cyclohexanecarboxamide] | > 8.00 |
| C[C@@H](NC(=O)[C@H]1CC[C@H](NS(=O)(=O)c2ccc3[nH]c(-c4ccc(CN5CCN(C)CC5)cc4)nc3c2)CC1)c1ccccc1 [Example 576, (1r,4R)-4-(2-(4-((4-methylpiperazin-1-yl)methyl)phenyl)-1H-benzo[d]imidazole-5-sulfonamido)-N-((R)-1-phenylethyl)cyclohexanecarboxamide] | > 8.00 |
| C[C@@H](NC(=O)[C@H]1CC[C@H](NS(=O)(=O)c2ccc3[nH]c(-c4ccc(CN5CCOCC5)cc4)nc3c2)CC1)c1ccccc1 [Example 577, (1r,4R)-4-(2-(4-(morpholinomethyl)phenyl)-1H-benzo[d]imidazole-5-surfonamido)-N-((R)-1-phenylethyl)cyclohexanecarboxamide] | 7.82 |
| C[C@H](c1ccccc1)N(C)C(=O)[C@H]1CC[C@H](NS(=O)(=O)c2ccc3[nH]c(-c4ccccc4)nc3c2)CC1 [Example 578, (1r,4R)-N-methyl-4-(2-phenyl-1H-benzo[d]imidazole-5-sulfonamido)-N-((R)-1-phenylethyl)cyclohexanecarboxamide] | 7.21 |
| O=C(N[C@H](CO)c1ccccc1)[C@H]1CC[C@H](NS(=O)(=O)c2ccc3[nH]c(-c4ccccc4)nc3c2)CC1 [Example 579, (1r,4S)-N-((S)-2-hydroxy-1-phenylethyl)-4-(2-phenyl-1H-benzo[d]imidazole-5-sulfonamido)cyclohexanecarboxamide] | 8.00 |
| C[C@@H](NC(=O)C1CCC(NS(=O)(=O)c2ccc3[nH]c(-c4ccccc4)nc3c2)CC1)c1ccccc1 (stereo partly drawn) [Example 580, (1r,4S)-4-(2-phenyl-1H-benzo[d]imidazole-5-sulfonamido)-N-((S)-1-phenylethyl)cyclohexanecarboxamide] | 5.76 |
| O=C(NC1(c2ccccc2)CC1)[C@H]1CC[C@H](NS(=O)(=O)c2ccc3[nH]c(-c4ccccc4)nc3c2)CC1 [Example 581, (1r,4r)-4-(2-phenyl-1H-benzo[d]imidazole-5-sulfonamido)-N-(1-phenylcyclopropyl)cyclohexanecarboxamide] | 6.51 |
| CC(C)(NC(=O)[C@H]1CC[C@H](NS(=O)(=O)c2ccc3[nH]c(-c4ccccc4)nc3c2)CC1)c1ccccc1 [Example 582, (1r,4r)-4-(2-phenyl-1H-benzo[d]imidazole-5-sulfonamido)-N-(2-phenylpropan-2-yl)cyclohexanecarboxamide] | 6.60 |
| CN1CCN(c2ccc(-c3nc4cc(S(=O)(=O)N[C@H]5CC[C@H](C(=O)N6CCOCC6)CC5)ccc4[nH]3)cc2)CC1 [Example 583, 2-(4-(4-methylpiperazin-1-yl)phenyl)-N-((1r,4r)-4-(morpholine-4-carbonyl)cyclohexyl)-1H-benzo[d]imidazole-5-sulfonamide] | 7.26 |
| O=C([C@H]1CC[C@H](NS(=O)(=O)c2ccc3[nH]c(Nc4ccccc4)nc3c2)CC1)N1CCOCC1 [Example 584, N-((1r,4r)-4-(morpholine-4-carbonyl)cyclohexyl)-2-(phenylamino)-1H-benzo[d]imidazole-5-sulfonamide] | 6.92 |
| CC(C)(C)c1nnc([C@H]2CC[C@H](NS(=O)(=O)c3ccc4[nH]c(-c5ccccc5)nc4c3)CC2)o1 [Example 585, N-((1r,4r)-4-(5-tert-butyl-1,3,4-oxadiazol-2-yl)cyclohexyl)-2-phenyl-1H-benzo[d]imidazole-5-sulfonamide] | 6.11 |
